Measurements published in patent US7169970B2, “Herbicide resistant plants” (priority 2000, dated 2007).
Structures can show the parent of a compound that is named as a salt.

Legend:
Assay type in all cases: biochemical
[1] = system: sensitive w/t form of EPSPS; experiment: EPSPS assays of plant extracts in the presence of glyphosate, sensitive w/t enzyme; details: 0.1 mM N-(phosphonomethyl)glycine; 0.1 mM 14C-PEP; 0.75 mM shikimate-3-Pi
Procedure: (§1) Assays are carried out generally according to the radiochemical method of Padgette et al 1987 (Archives of Biochemistry and Biophysics, 258(2) 564–573) with K+ions as the major species of cationic counterion. Assays in a total volume of 50 μl, in 50 mM Hepes(KOH) pH 7.0 at 25° C., contain purified enzyme or plant extract (see below) diluted appropriately in Hepes pH 7.0 containing 10% glycerol, and 5 mM DTT, ^14C PEP either as variable-substrate (for kinetic determinations) or fixed at 100 or 250 μM and shikimate 3 Phosphate (K+ salt) at 0.75 or 2 mM as indicated. Optionally, for assays of crude plant extracts, assays also contain 5 mM KF and/or 0.1 mM ammonium molybdate. Assays are started with the addition of ^14C phosphoenolpyruvate (cyclohexylammonium+salt) and stopped after 2–10 minutes (2 minutes is preferable) with the addition of 50 μl of a solution of 1 part 1M acetic acid and 9 parts ethanol. […] Apparent Km and Vmax values are determined by least squares fit to a hyperbola with simple weighting using the Grafit 3.09b from Erithacus Software Ltd. Km values are generally ascertained using 8–9 concentrations of variable substrate ranging from Km/2–10 Km and triplicate points. […]

resistant forms of EPSPS = experiment: EPSPS assays of plant extracts in the presence of glyphosate, resistant enzyme; details: 0.1 mM N-(phosphonomethyl)glycine; 0.1 mM 14C-PEP; 0.75 mM shikimate-3-Pi; estimated
Procedure: as §1

[2] = target: T1, mutant Brassica napus EPSPS (Brassica napus, UniProt P17688, P178S/T174I); experiment: Radiochemical EPSPS assay of purified mutant Brassica napus EPSPS
T1 construct: The mature mutant Brassica napus EPSPS protein is purified; initiating Met (N); made in house; host or cells: E. coli BL21 (DE3) RP, vector pET24a
T1 sequence (P17688 73-516 T174I/P178S): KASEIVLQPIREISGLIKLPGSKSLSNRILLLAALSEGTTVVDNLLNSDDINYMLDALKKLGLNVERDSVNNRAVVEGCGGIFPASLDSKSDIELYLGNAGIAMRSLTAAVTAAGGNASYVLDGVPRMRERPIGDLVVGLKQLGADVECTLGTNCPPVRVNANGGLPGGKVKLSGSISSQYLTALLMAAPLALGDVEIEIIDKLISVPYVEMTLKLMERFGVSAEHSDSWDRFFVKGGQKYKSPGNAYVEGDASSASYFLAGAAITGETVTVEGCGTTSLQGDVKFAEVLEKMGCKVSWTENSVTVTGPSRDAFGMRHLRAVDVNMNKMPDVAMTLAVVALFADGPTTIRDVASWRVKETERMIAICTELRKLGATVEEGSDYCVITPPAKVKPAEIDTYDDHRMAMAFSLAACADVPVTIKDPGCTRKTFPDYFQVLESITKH
Procedure: as §1, with “^14C PEP either as variable-substrate (for kinetic determinations) or fixed at 100 or 250 μM and shikimate 3 Phosphate” left out
The mature mutant Brassica napus EPSPS protein is purified at ˜4 C as follows. […] EPSPS-containing fractions detected on the basis of EPSPS enzyme activity are combined and loaded onto an xk16 column containing 20 ml of HP Q-Sepharose equilibrated with S200 buffer. […]

| SMILES | inhibition of sensitive w/t EPSPS [1] [%] | inhibition of resistant forms of EPSPS (resistant forms of EPSPS) [%] | IC50 ([2]; at 40 μM PEP, 2 mM shikimate-3-Pi, purified enzyme, read-out: IC50 value for the potassium salt of glyphosate) [µM] | Ki ([2]; purified mutant EPSPS, read-out: estimated Ki value for potassium glyphosate) [µM] |
| --- | --- | --- | --- | --- |
| O=C(O)CNCP(=O)(O)O [N-(phosphonomethyl)glycine] | > 98 | < 8.5 | – | – |
| O=C(O)CNCP(=O)(O)O [potassium salt of glyphosate] | – | – | ~600 | ~450 |
